Target: T1, PGI2 receptor (Homo sapiens, UniProt P43119)
T1 construct: host or cells: thawed 'PGI2 cell' suspension
Assay: PGI2 cAMP cell assay in vitro (HTRF cAMP)
Assay type: cell-based
Settings: cells in vitro
Procedure: PGI2 cAMP Cell Assay In Vitro:
A series of cells were placed in a 37° C. water bath for rapid thawing, and the cell suspension was transferred to a 15 mL centrifuge tube containing 10 mL HBSS, and mixed uniformly. The cells were centrifuged at 1000 rpm for 5 minutes at room temperature. The supernatant was removed after centrifugation.
The centrifuge tube was tapped gently to suspend the cells after centrifugation, then the cells were re-suspended with 10 mL HBSS (Hanks buffered saline solution) and mixed uniformly by pipetting up and down. The cells were counted by Vi-cell. The cells were centrifuged for the second time at 1000 rpm for 5 minutes. The cells were re-suspended by experimental buffer to reach a cell concentration of 1.5×10^5/mL.
The samples were diluted with the Bravo automated liquid handling platform to make the initial concentration of the sample reach 2 mM and 5-fold serial dilution at 10 points. The control sample was diluted with Bravo to make the initial concentration of the sample reach 2 mM and 5-fold serial dilution at 10 points.
50 nL DMSO or sample to be tested was transferred to PE384-well OptiPlate by Echo. The cell suspension was transferred to the testing plate by electric pipette, 10 μL cells/well. The testing plate was centrifuged at 1000 rpm […]. The testing plate was incubated at room temperature for 60 minutes. Two kinds of test reagents were added to the testing plate, 5 µL/well. The testing plate was centrifuged at 1000 rpm for 1 minute. The experimental plate was sealed with Top Seal-A film and incubated at room temperature for 60 minutes. TopSeal-A was removed and the value was read on EnVision.

T1 sequence (P43119 whole entry, species assumed): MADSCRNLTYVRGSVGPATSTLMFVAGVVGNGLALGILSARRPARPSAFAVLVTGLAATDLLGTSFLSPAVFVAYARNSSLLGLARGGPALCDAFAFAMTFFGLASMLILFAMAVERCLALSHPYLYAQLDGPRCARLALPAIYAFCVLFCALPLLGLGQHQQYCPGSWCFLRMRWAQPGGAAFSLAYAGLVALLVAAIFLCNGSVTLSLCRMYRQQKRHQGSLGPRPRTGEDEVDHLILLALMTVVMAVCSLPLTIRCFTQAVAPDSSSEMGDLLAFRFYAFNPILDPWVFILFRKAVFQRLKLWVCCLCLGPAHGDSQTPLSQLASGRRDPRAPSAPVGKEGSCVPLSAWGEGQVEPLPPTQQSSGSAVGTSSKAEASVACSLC

SMILES | EC50 [nM]
O=C(O)COCC1CCN(c2cncc(N(c3ccccc3)c3ccc(Cl)cc3)n2)CC1 [Compound 1] | 2.02
O=C(O)COCC1CCN(c2nccc(N(c3ccccc3)c3ccc(Cl)cc3)n2)CC1 [Compound 2] | 2990
O=C(O)COCC1CCN(c2cncc(N(c3ccccc3)c3ccc(F)cc3)n2)CC1 [Compound 3] | 2.09
O=C(O)COCC1CCN(c2cncc(N(c3ccccc3)c3ccccc3)n2)CC1 [Compound 4] | 2.99
COc1ccc(N(c2ccccc2)c2cncc(N3CCC(COCC(=O)O)CC3)n2)cc1 [Compound 5] | 3.74
O=C(O)COCC1CCN(c2cncc(N(c3ccccc3)c3ccc(OC(F)(F)F)cc3)n2)CC1 [Compound 6] | 3.55
COc1cccc(N(c2ccccc2)c2cncc(N3CCC(COCC(=O)O)CC3)n2)c1 [Compound 7] | 2.12
O=C(O)COCC1CCN(c2cncc(N(c3ccccc3)c3cccc(OC(F)(F)F)c3)n2)CC1 [Compound 8] | 38
O=C(O)COCC1CCN(c2cncc(N(c3ccccc3)c3cccc(F)c3)n2)CC1 [Compound 9] | 12.8
O=C(O)COCC1CCN(c2cncc(N(c3ccccc3)c3ccc(F)c(F)c3)n2)CC1 [Compound 10] | 10.2
O=C(O)COCC1CCN(c2cncc(N(c3ccccc3)c3cc(F)cc(F)c3)n2)CC1 [Compound 11] | 123
O=C(O)COCC1CCN(c2cncc(N(c3ccccc3)c3cccc(Cl)c3)n2)CC1 [Compound 12] | 4.84
O=C(O)COCC1CCN(c2cncc(N(c3ccccc3)c3ccc(OC(F)F)cc3)n2)CC1 [Compound 13] | 4.17
O=C(O)COCC1CCN(c2cncc(N(c3ccccc3)c3cccc(OC(F)F)c3)n2)CC1 [Compound 14] | 9.65
O=C(O)COCC1CCN(c2cccc(N(c3ccccc3)c3ccccc3)n2)CC1 [Compound 15] | > 2000
O=C(O)COCC1CCN(c2ccnc(N(c3ccccc3)c3ccccc3)n2)CC1 [Compound 16] | 23.5
O=C(O)COCC1(F)CCN(c2cncc(N(c3ccccc3)c3ccccc3)n2)CC1 [Compound 17] | 0.29
CS(=O)(=O)NC(=O)COCC1(F)CCN(c2cncc(N(c3ccccc3)c3ccccc3)n2)CC1 [Compound 18] | 79.9
CCOC(=O)COCC1(F)CCN(c2cncc(N(c3ccccc3)c3ccccc3)n2)CC1 [Compound 19] | 6.11
O=C(O)COCC1(F)CCN(c2cncc(N(c3ccccc3)c3ccc(OC(F)F)cc3)n2)CC1 [Compound 20] | 1.65
O=C(O)COCC1(F)CCN(c2cncc(N(c3ccccc3)c3cccc(OC(F)F)c3)n2)CC1 [Compound 21] | 3
O=C(O)COCC1(F)CCN(c2cncc(N(c3ccccc3)c3cccc(F)c3)n2)CC1 [Compound 22] | 0.22
COc1ccc(N(c2ccccc2)c2cncc(N3CCC(F)(COCC(=O)O)CC3)n2)cc1 [Compound 23] | 1.1
COc1cccc(N(c2ccccc2)c2cncc(N3CCC(F)(COCC(=O)O)CC3)n2)c1 [Compound 24] | 0.41
O=C(O)COCC1(F)CCN(c2cncc(N(c3ccccc3)c3ccc(Cl)cc3)n2)CC1 [Compound 25] | 0.8
O=C(O)COCC1(F)CCN(c2cncc(N(c3ccccc3)c3ccc(OC(F)(F)F)cc3)n2)CC1 [Compound 26] | 3.73

SMILES | EC50 [nM]
O=C(O)COCC1(F)CCN(c2cncc(N(c3cccc(F)c3)c3ccccn3)n2)CC1 [Compound 27] | 6.74
O=C(O)COCC1(F)CCN(c2cncc(N(c3cccc(Cl)c3)c3ccccn3)n2)CC1 [Compound 28] | 2.17
COc1cccc(N(c2ccc(F)cn2)c2cncc(N3CCC(F)(COCC(=O)O)CC3)n2)c1 [Compound 29] | 4.19
O=C(O)COCC1(F)CCN(c2cncc(N(c3ccccc3)c3ccccn3)n2)CC1 [Compound 30] | 3.26
O=C(O)COCC1(F)CCN(c2cncc(N(c3ccccc3)c3cccc(F)n3)n2)CC1 [Compound 31] | 1.61
O=C(O)COCC1(F)CCN(c2cncc(N(c3ccccc3)c3ccc(F)cn3)n2)CC1 [Compound 32] | 1.41
CS(=O)(=O)NC(=O)COCC1(F)CCN(c2cncc(N(c3ccccc3)c3ccc(F)cn3)n2)CC1 [Compound 33] | 118
COc1ccc(N(c2ccccc2)c2cncc(N3CCC(F)(COCC(=O)O)CC3)n2)nc1 [Compound 34] | 1.9
O=C(O)COCC1(F)CCN(c2cncc(N(c3ccccc3)c3ccc(F)cc3)n2)CC1 [Compound 35] | 0.43
CS(=O)(=O)NC(=O)COCC1(F)CCN(c2cncc(N(c3ccccc3)c3ccc(F)cc3)n2)CC1 [Compound 36] | 4.97
O=C(O)COCC1(F)CCN(c2cncc(N(c3ccccc3)C3CCCCC3)n2)CC1 [Compound 37] | 34.2
COc1ccc(N(c2ccc(Cl)cc2)c2cncc(N3CCC(F)(COCC(=O)O)CC3)n2)nc1 [Compound 38] | 459
O=C(O)COCC1(F)CCN(c2cncc(N(c3ccc(Cl)cc3)c3ccc(F)cn3)n2)CC1 [Compound 39] | > 300
O=C(O)COCC1(F)CCN(c2cncc(N(c3ccc(F)cc3)c3ccccn3)n2)CC1 [Compound 40] | 3.2
O=C(O)COCC1(F)CCN(c2cncc(N(c3ccc(Cl)cc3)c3ccccn3)n2)CC1 [Compound 41] | 2.94
COc1ccc(N(c2ccccn2)c2cncc(N3CCC(F)(COCC(=O)O)CC3)n2)cc1 [Compound 42] | 2.63
O=C(O)COCC1(F)CCN(c2cncc(N(c3ccccc3)c3ccc(Cl)cn3)n2)CC1 [Compound 43] | 1.07
O=C(O)COCC1(F)CCN(c2cncc(N(c3ccccc3)c3cc(Cl)ccn3)n2)CC1 [Compound 44] | 1.98
Cc1ccc(N(c2ccccc2)c2cncc(N3CCC(F)(COCC(=O)O)CC3)n2)nc1 [Compound 45] | 1.55
O=C(O)COCC1(F)CCN(c2cncc(N(c3ccccc3)c3nccs3)n2)CC1 [Compound 46] | 20.1
O=C(O)COCC1CC=C(c2cncc(N(c3ccccc3)c3ccc(Cl)cc3)n2)CC1 (stereo not shown) [Compound 47] | 40.1
O=C(O)COC[C@H]1CC[C@@H](c2cncc(N(c3ccccc3)c3ccccc3)n2)CC1 [Compound 48a] | 18
O=C(O)COC[C@H]1CC[C@H](c2cncc(N(c3ccccc3)c3ccccc3)n2)CC1 [Compound 48b] | 3.72
O=C(O)COCC1(F)CCN(c2cncc(C(O)(c3ccccc3)c3ccccc3)n2)CC1 [Compound 49] | 81
O=C(O)COCC1(F)CCN(c2cncc(C(c3ccccc3)c3ccccc3)n2)CC1 [Compound 50] | 5.36
COC(c1ccccc1)(c1ccccc1)c1cncc(N2CCC(F)(COCC(=O)O)CC2)n1 [Compound 51] | 322
